Results as given in patent publication US20140294849A1, “COMPOSITIONS AND USES” (GLAXOSMITHKLINE BIOLOGICALS SA, priority 2011, published 2014).

Key:
CD11b+ monocytes = assay: In vivo uptake assay of Aβ42 after immunization or passive immunotherapy; design: species or system C57BL/6 mice; conditions: Example 20
Experimental: Mice: C57BL/6 female mice were purchased from Charles River. […]
[…] At day 22, 5 μg per mouse of fluorescent HiLyte Fluor™ 488-labeled Amyloid β1-42 (Anaspec, Fremont, Calif.) was injected in the tail vein. […] Plasma of pooled blood was decanted and saved for measurement of antibody titres by ELISA. Red blood cell lysis was performed twice with Ammonium Chloride-based Buffer (Sigma, Steinheim, Germany) and cells were counted with the EasyCount™ System (Immunicon).
FACS analysis: 500,000 cells were aliquoted in a 96-well plate, washed once, incubated for 10 min. on ice in the presence of Rat anti-Mouse CD16/CD32 (clone 2.4G2—BD Fc Block™) and further stained for 30 min. with a combination of the following directly conjugated antibodies at their pre-determined optimal concentration: PE-Hamster anti-Mouse CD3 (clone 145-2C11), Rat anti-Mouse CD45R/B220 (clone RA3-6B2), Rat anti-Mouse Ly-6G (clone 1A8), Mouse anti-Mouse NK1.1 (clone PK136), APC-conjugated Rat anti-Mouse CD11b (clone M1/70), PE-Cy7-conjugated Hamster anti-Mouse CD11c (clone HL3), (all from BD PharMingen). Cells were finally washed twice and fixed for 15 min. with a 2% paraformaldehyde solution in PBS. FMOs controls were always included in the assays.
Samples were acquired on a flow cytometer (BD FACSCanto II) and data analyzed with the FACSDiva software (BD Biosciences).
Monocytes were identified by their Side/Forward scatter properties, excluding debris and gated as CD3-/CD45R/B220-/Ly-6G-/NK1.1-(Lineage-)/CD11b+ cells. Aβ uptake was assessed by reporting the percentage and Mean Fluorescence Intensity (GeoMean) of positive HiLyte Fluor™ 488 Aβ1-42 cells among gated monocytes.
Mice were passively immunized with a constant dose of anti Aβ monoclonal antibody (15 ug of 2E7)+different dose of immunomodulators (CRX601 or CRX601/AS03 or AS01B). […] Red blood cell lysis was performed twice with Ammonium Chloride-based Buffer (Sigma, Steinheim, Germany) and cells were counted with the EasyCount™ System (Immunicon). […]

[1] = system: spatial learning and memory; assay: T-water maze in APP/PS1 mice; format: in vivo, APPSwe/PS1 mice
Experimental: Five groups of APPSwe/PS1 mice received one a week for a period of 12 weeks the following treatment: • Gr1: APPSwe/PS1+NaCl 0.9% n(=20), i.p. injections • Gr4: APPSwe/PS1+CRX527 (20 μg/mouse, 130 μl, n=10), i.p. injections • Gr5: […] (50 μg/mouse, 130 μl, n=10), i.p. injections • Gr8 APPSwe/PS1+AS15 ( 1/10th of human dose, 50 μl, n=10), i.m. injections • Gr9: APPSwe/PS1+AS01B ( 1/10th of human dose, 50 μl, n=10), i.m. injections
Mice were tested during the “light on” phase of the day. Behavioral experimenter was blinded to the genetic and treatment status of animals. To assess hippocampal-dependent spatial learning and memory, mice were trained in the T-water maze task. In this paradigm, we evaluate the mouse's ability to remember the spatial location of submerged platform. The T-maze apparatus (length of stem, 64 cm; length of arms, 30 cm; width, 12 cm; height of walls, 16 cm) was made of clear fiberglass and filled with water (23±1° C.) at a height of 12 cm. A platform (11×11 cm) was placed at the end of the target arm and was submerged 1 cm below the surface. The acquisition phase allows to evaluate animals for left-right spatial learning. During the first two trials, platforms were placed on each arms of the maze to test the spontaneous turning preference of the mouse. After these two trials, the least chosen arm was reinforced by the escape platform. The mice were placed in the stem of the T-maze and choose to swim either left or right until they found the submerged platform and escape to it, to a maximum of 60 s. After reaching the platform, the mice remained on it for 20 s and then were immediately placed back in the maze. […] Repeated trials were presented on the same day up to a maximum of 48 trials. A rest period of at least 10-15 min intervened between each block of 10 trials. A mouse was considered to have learned the task when it made no errors in a block of five consecutive trials. The reversal learning phase was then conducted 48 h later. During this phase, the same protocol was repeated, except that the mice were trained to find the escape platform on the opposite side to that on which they had learned on acquisition phase. The number of trials to reach the criterion (five of five correct choices made on consecutive trials) was measured as well as the latency to find the escape platform.

`CCCCCCCCCCC[C@H](CC(=O)N[C@H]1[C@H](OC[C@H](NC(=O)C[C@@H](CCCCCCCCCCC)OCCCCCCCCCC)C(=O)O)O[C@H](CO)[C@@H](OP(=O)(O)O)[C@@H]1OC(=O)C[C@@H](CCCCCCCCCCC)OCCCCCCCCCC)OCCCCCCCCCC` [CRX601] was tested, and the “antibody-mediated Aβ uptake when combined with AS03 emulsion” value (CD11b+ monocytes; CRX601 20 ug with AS03) was “partially quenched”, the “antibody-mediated Aβ uptake” value (CD11b+ monocytes; CRX601 at 20 ug single i.m., 15 ug of 2E7, 24 hrs) was “highest Aβ uptake” and the “dose dependence of antibody-mediated Aβ uptake” value (CD11b+ monocytes; different doses, constant 2E7) was “Dose-response observed”. The “behaviour as assessed by T water maze testing” value ([1]; Example 21, twelve weekly injections, vs non treated mice) was “significant improvements in behaviour” and the “cognitive functions, T-water maze” value ([1]; Example 22, i.m. 12x weekly, CRX601 2 μg, CRX601 2 ug in AS03, 3D MPL 5 ug, AS01B 1/10 human dose, vs PBS, unpaired t-tests) was “significant improvement of their cognitive functions”.
